We go through 18 compounds from patent US7968601B2, “Adamantyl acetamides as 11-β hydroxysteroid dehydrogenase inhibitors” (Janssen Pharmaceutica N.V., priority 2002, dated 2011).

In data set [1] the target is T1, 11b-HSD1 (Mus musculus, UniProt P50172).
T1 construct: endogenous in cells; host or cells: 3T3-L1 (ATCC-CL-173), differentiated into adipocytes
Nature of the data set: Cellular assay, 11b-HSD1 activity in differentiated 3T3-L1 cells. Conditions: 4 hour pre-incubation, pIC50 scored 1-3, read-out: [C2] HSD1 cellular 3T3-L1 Score. Type of data set: cell-based. The method in brief:
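Mouse 3T3-L1 fibroblasts differentiated to adipocytes (insulin, IBMX, dexamethasone), pre-incubated 4 h with compound (3×10^-9 to 10^-5 M final), then 0.5 μCi ³H-cortisone or dehydrocorticosterone added for 1 h. Medium ether-extracted, steroid conversion analysed by HPLC; pIC50 from dose-response curves, scored 1 (<5), 2 (5–6), 3 (>6).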

Data set [2] concerns the target T2, 11b-HSD2 (Homo sapiens, UniProt P80365).
T2 sequence (P80365 1-405): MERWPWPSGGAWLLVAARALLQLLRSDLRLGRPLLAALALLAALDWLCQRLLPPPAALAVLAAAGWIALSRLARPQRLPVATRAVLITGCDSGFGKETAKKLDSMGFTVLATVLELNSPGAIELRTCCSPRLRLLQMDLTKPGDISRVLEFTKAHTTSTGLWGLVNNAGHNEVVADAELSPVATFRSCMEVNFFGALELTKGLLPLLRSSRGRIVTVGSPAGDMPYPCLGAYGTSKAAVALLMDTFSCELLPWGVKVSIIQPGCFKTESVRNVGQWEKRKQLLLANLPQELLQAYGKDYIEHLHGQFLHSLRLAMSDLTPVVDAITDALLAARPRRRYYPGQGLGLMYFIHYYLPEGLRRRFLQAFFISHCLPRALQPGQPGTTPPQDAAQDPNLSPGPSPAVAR
Nature of the data set: Cellular assay, 11b-HSD2 activity in HepG2 cells. In kind it is cell-based. On the set-up: endogenous in cells; host or cells: HepG2 (ATCC HB-8065). The conditions noted are these: 4 hour pre-incubation, pIC50 scored 1-3, read-out: [C2] HSD2 cellular HepG2 Score. The method in brief:
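HepG2 cells in charcoal-stripped FCS were pre-incubated 4 h with compound, then given 0.5 μCi ³H-cortisol or corticosterone for 1 h. Medium was ether-extracted and steroids resolved by HPLC. Final compound range was 10^−5 M to 3·10^−9 M, and pIC50 from dose-response curves was scored in three bands.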

Data set [3] addresses 11b-HSD1 (Homo sapiens, UniProt P28845). Nature of the data set: Enzymatic assay, 11b-HSD1 reductase activity (conversion of cortisone into cortisol). In kind it is biochemical. Conditions: pIC50 scored 1-3, read-out: [C1] HSD1-prot Reduct Score. An outline of the steps: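 Recombinant human 11b-HSD1 (11 µg) with 2 µM cortisone and 180 µM NADPH in 30 mM Tris-HCl pH 7.2, 1 mM EDTA, incubated 45 min at 37 °C. Cortisol formation was measured by HPLC with a corticosterone internal standard. Compounds were tested from 10^−5 M to 3.10^−9 M, and pIC50 was scored as 1 (<5), 2 (5–6) or 3 (>6).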

In data set [4] the target is T2, 11b-HSD2. Nature of the data set: Enzymatic assay, 11b-HSD2 dependent dehydrogenase activity. The conditions noted are these: 11b-HSD2 dehydrogenase activity, pIC50 scored 1-3, read-out: [C1] HSD2 prot Dehydro Score. Type of data set: biochemical. The method in brief: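 Recombinant human 11b-HSD2 (2.5 μg) incubated 45 min at 37 C in 0.1M sodium phosphate pH 7.5 with 300 μM NAD and 100 nM cortisol (2 nM 3H-labelled). Product measured by HPLC; compounds at final […] to 3.10^−9M, pIC50 from dose-response curves, scored 1 (<5), 2 (5–6), 3 (>6).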

Counter-ions that a name gives are not always drawn.

T1 sequence (P50172 whole entry): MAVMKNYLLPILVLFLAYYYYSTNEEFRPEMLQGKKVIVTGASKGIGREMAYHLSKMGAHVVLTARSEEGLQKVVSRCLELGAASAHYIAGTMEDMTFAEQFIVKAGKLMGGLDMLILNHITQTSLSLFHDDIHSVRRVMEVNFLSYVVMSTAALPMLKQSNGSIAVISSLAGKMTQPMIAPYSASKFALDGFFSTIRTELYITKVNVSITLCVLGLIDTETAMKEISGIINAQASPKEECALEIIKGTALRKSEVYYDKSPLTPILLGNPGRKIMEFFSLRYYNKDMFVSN
Chain of 11b-HSD1 (Homo sapiens, UniProt P28845) (P28845 whole entry): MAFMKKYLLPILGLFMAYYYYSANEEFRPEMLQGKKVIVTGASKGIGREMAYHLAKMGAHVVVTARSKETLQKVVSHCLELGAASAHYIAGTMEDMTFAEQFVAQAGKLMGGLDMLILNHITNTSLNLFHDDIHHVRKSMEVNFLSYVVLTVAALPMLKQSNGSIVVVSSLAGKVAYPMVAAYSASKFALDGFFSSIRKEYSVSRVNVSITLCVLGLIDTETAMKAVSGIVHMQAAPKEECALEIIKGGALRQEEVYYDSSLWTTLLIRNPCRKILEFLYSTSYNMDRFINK

As for `CC(C)(C(=O)N[C@H]1[C@@H]2CC3C[C@H]1C[C@](O)(C3)C2)c1cccc(OCCN2CCOCC2)c1` (as salt: HCl) [Compound 158], the melting point (as a rule, the temperature of the solid-liquid transition) lay in the range of 155 to 160 °C.

Take `CC(C)(C(=O)N[C@H]1[C@@H]2CC3C[C@H]1C[C@](F)(C3)C2)c1cccc(OCCN2CCOCC2)c1` (as salt: HCl) [Compound 228]: the melting point was 208 to 210 °C.

With `COc1cccc(C(C)(C)C(=O)N[C@@H]2[C@@H]3CC4C[C@H]2C[C@](O)(C4)C3)c1` [Compound 155], the melting point is 165 to 167 °C.

In turn, `Cc1cccc(C(C)(C)C(=O)N[C@H]2[C@@H]3CC4C[C@H]2C[C@](F)(C4)C3)c1` [Compound 187] showed a melting point of 115 to 117 °C.

In turn, `COc1cccc(C(C)(C)C(=O)N[C@@H]2[C@@H]3CC4C[C@H]2C[C@](F)(C4)C3)c1` [Compound 188] registered a melting point of 110 to 112 °C.

Regarding `COc1cccc(C(C)(C)C(=O)N[C@H]2[C@@H]3CC4C[C@H]2C[C@](F)(C4)C3)c1` [Compound 189], the melting point was 105 to 107 °C.

As for `CN1CCN(CCOc2cccc(C(C)(C)C(=O)NC3C4CC5CC(C4)CC3C5)c2)CC1` (stereo not drawn) [Compound 199], the melting point lay in the range of 165 to 170 °C.

The compound `O=C(NC1C2CC3CC(C2)CC1C3)N1CCCc2ccccc21` (stereo not drawn) [Compound 200] yielded a melting point of 163 to 165 °C.

As to `O=C(NC1C2CC3CC(C2)CC1C3)N1CCc2ccccc2C1` (stereo not drawn) [Compound 201], the melting point was 145 to 147 °C.

In the case of `O=C(N[C@H]1[C@@H]2CC3C[C@H]1C[C@](O)(C3)C2)N1CCCc2ccccc21` [Compound 218], the melting point is 170 to 172 °C.

Regarding `O=C(N[C@@H]1[C@@H]2CC3C[C@H]1C[C@](O)(C3)C2)N1CCCc2ccccc21` [Compound 219], the melting point lay within 185 to 188 °C.

For `O=C(N[C@H]1[C@@H]2CC3C[C@H]1C[C@](F)(C3)C2)N1CCCc2ccccc21` [Compound 226], the melting point was 182 to 184 °C.

For `CC(C)(C(=O)N[C@H]1[C@@H]2CC3C[C@H]1C[C@](F)(C3)C2)c1cccc(OCC(=O)O)c1` [Compound 227], the melting point lay within 210 to 215 °C.

For `Cc1cc(CCC(=O)N2CCOCC2)cc(C(C)(C)C(=O)N[C@H]2[C@@H]3CC4C[C@H]2C[C@](F)(C4)C3)c1` [Compound 251], the IC50 on 11b-HSD1 [1] was < 1 µM; on 11b-HSD2 [2], > 10 µM; at 11b-HSD1 [3] it was < 1 µM; on 11b-HSD2 [4], > 10 µM.

With `Cc1cc(CCC(=O)O)cc(C(C)(C)C(=O)N[C@H]2[C@@H]3CC4C[C@H]2C[C@](F)(C4)C3)c1` [Compound 254], the IC50 is < 1 µM at 11b-HSD1 [1], > 10 µM on 11b-HSD2 [2], > 10 µM on 11b-HSD1 [3] and > 10 µM on 11b-HSD2 [4].

Turning to `O=C(O)COc1cccc2c1CCN(C(=O)NC1C3CC4CC(C3)CC1C4)C2` (stereo not drawn) [Compound 257], the melting point is 215 to 220 °C.

Take `O=C(O)CCc1cccc2c1CCCC2C(=O)N[C@H]1[C@@H]2CC3C[C@H]1C[C@](F)(C3)C2` (stereo partly drawn) [Compound 258]: the IC50 at 11b-HSD1 [1] is < 1 µM; at 11b-HSD2 [2] it was > 10 µM; on 11b-HSD1 [3], < 1 µM; on 11b-HSD2 [4] it was > 10 µM.

In the case of `COc1cc(C)cc(C(C)(C)C(=O)N[C@H]2[C@@H]3CC4C[C@H]2C[C@](F)(C4)C3)c1` [Compound 263], the IC50 on 11b-HSD1 [1] is < 1 µM; on 11b-HSD2 [2] it was > 10 µM; on 11b-HSD1 [3], > 10 µM; at 11b-HSD2 [4], > 10 µM.
